The values that follow come from patent US8895035B2, “Alkoxyimino derivative and pest control agent” (Kumiai Chemical Industry Co., Ltd, priority 2010, dated 2014).

Format in all cases: in vivo
Assay [1] concerns Aphis gossipii Glover (cotton aphid, melon aphid). The assay can be described thus: Insecticidal action test for Aphis gossipii Glover (seedling immersion). The settings on record: 72 h, 500 ppm active ingredient, cucumber seedlings with hatchlings immersed, 25° C., after 3 days, read-out: insect mortality. The method, then:
A wettable powder prepared based on Formulation Example 2 was diluted with water so that the concentration of active ingredient became 500 ppm. In the resulting liquid were immersed cucumber seedlings on which the hatchlings of Aphis gossipii Glover were parasitic, after which the cucumber seedlings were dried in the air. The resulting cucumber seedlings were placed in a thermostat of 25° C. After 3 days, the number of living insects was calculated and the mortality of insect was calculated using the calculation formula of the following Mathematical Expression 1. Insect mortality (%)=[1−(number of living insects)/(number of tested insects)]×100 [Mathematical Expression 1]

Assay [2] deals with Nilaparvata lugens Stál (brown rice planthopper). The experiment in a line: Insecticidal action test for Nilaparvata lugens Stál (immersed sprouting rice). The settings on record: 144 h, 500 ppm active ingredient, sprouting unhulled rice immersed, 3-age larvae, 25° C., after 6 days, read-out: insect mortality. How it is done: A wettable powder prepared based on Formulation Example 2 was diluted with water so that the concentration of active ingredient became 500 ppm. In the diluted formulation were immersed sprouting unhulled rice. The immersed rice was placed in a plastic cup of 60 ml. Into the plastic cup were released 10 3-age larvae of Nilaparvata lugens Stál (brown rice planthopper). The cup was covered with a cap and placed in a thermostat of 25° C. After 6 days, the number of living insects was counted and the mortality of insect was calculated using the calculation formula of Mathematical Expression 1.

The test system of assay [3] is Aphis gossipii Glover (cotton aphid, melon aphid). The assay can be described thus: Insecticidal action test for Aphis gossipii Glover (drench). The settings on record: soil, 72 h, 500 ppm active ingredient, 5 ml drenched to foot of cucumber seedlings with hatchlings, 25° C., after 3 days, read-out: insect mortality. The method, then: A wettable powder prepared based on Formulation Example 2 was diluted with water so that the concentration of active ingredient became 500 ppm. 5 ml of the resulting diluted formulation was drenched to the […] foot of cucumber seedlings on which the hatchlings of Aphis gossipii Glover were parasitic. The resulting cucumber seedlings were placed in a thermostat of 25° C. After 3 days, the number of living insects was calculated and the mortality of insect was calculated using the calculation formula of Mathematical Expression 1.

In assay [4] the test system is Brown planthopper (Nilaparvata lugens). The experiment in a line: Trial of systematic insecticidal activity against brown planthopper. The settings on record: 144 h, 1,800 ppm active ingredient, 250 μl poured to rice-plant foot of rice seedlings, 3-age larvae, 25° C., after 6 days, read-out: insect mortality. The method, then:
A wettable powder prepared based on Formulation Example 2 was diluted with water so that the concentration of active ingredient became 1,800 ppm. 250 μl of the diluted formulation was poured to the rice-plant foot of 2.5-leaf age rice seedlings planted in a paper pot of 1.5 cm (length)×1.5 cm (width)×3 cm (height). Then, the paper pot was placed in a plastic cup of 700 ml. Into the plastic cup were released 5 3-age larvae of Nilaparvata lugens Stál (brown rice planthopper). The cup was covered with a cap and placed in a thermostat of 25° C. After 6 days, the number of living insects was counted and the mortality of insect was calculated using the calculation formula of Mathematical Expression 1.

Structures are written as SMILES. Some results are limits rather than exact numbers.

In the case of `CC(C)CON=C(N)C(=NOC(C)C)n1cncn1` [I-121, 1-(2-amino-2-isobutoxyimino-1-isopropoxyiminoethyl)-1H-1,2,4-triazole], the mortality at 500 ppm in assay [1] and in assay [2] was not below 90% in each case.
With `CC(C)ON=C(Cl)C(=NOC(C)C)n1cncn1` [I-4, 1-(2-chloro-1,2-diisopropoxyiminoethyl)-1H-1,2,4-triazole], the mortality at 500 ppm in assay [1], in assay [3] and in assay [2] was not below 90% throughout. Also, in assay [4], the mortality at 1800 ppm was not below 90%.
For `CC(=NOC(C)C)C(=NOC(C)C)n1ccnc1S` [V-10, 1-(1,2-diisopropoxyiminopropyl)-2-mercaptoimidazole], the mortality at 500 ppm in assay [1] and in assay [2] was not below 90% each time.
Regarding `CC(C)ON=C(C(N)=O)C(=NOC(C)C)n1cncn1` [I-73, 1-(2-carbamoyl-1,2-diisopropoxyiminoethyl)-1H-1,2,4-triazole], in assay [2], the mortality at 500 ppm was not below 90%.
Regarding `CC(C)ON=C(C(=NOC(C)C)n1cncn1)n1cncn1` [I-212, 1,2-diisopropoxyimino-1,2-bis(1H-1,2,4-triazol-1-yl)ethane], the mortality at 500 ppm in assay [1] and in assay [2] was not below 90% in each case.
`CSC(=NOC(C)C)C(=NOC(C)C)n1cncn1` [I-228, 1-(2-methylthio-1,2-diisopropoxyiminoethyl)-1H-1,2,4-triazole]: the mortality at 500 ppm in assay [1] and in assay [2] was not below 90% throughout. Besides, the mortality at 1800 ppm in assay [4] is not below 90%.
`CC(C)ON=C(C#N)C(=NOC(C)C)n1cncn1` [I-50, 1-(2-cyano-1,2-diisopropoxyiminoethyl)-1H-1,2,4-triazole]: the mortality at 500 ppm in assay [1] and in assay [2] was not below 90% each time. Moreover, in assay [4], the mortality at 1800 ppm is not below 90%.
As to `N#CC(=NOCC(F)(F)C(F)(F)F)C(=NOCC(F)(F)F)n1cncn1` [IV-185, 1-[2-cyano-2-(2,2,3,3,3-pentafluoro-n-propoxyimino)-1-(2,2,2-trifluoroethoxyimino)ethyl]-1H-1,2,4-triazole], the mortality at 500 ppm in assay [2] is not below 90%.
Consider `CON=C(C(=NOC(C)C)C(=O)OC)n1cncn1` [II-221, 1-(2-isopropoxyimino-2-methoxycarbonyl-1-methoxyiminoethyl)-1H-1,2,4-triazole], for which the mortality at 500 ppm in assay [1] and in assay [2] was not below 90% in each case.
On to `CC(C)ON=C(Br)C(=NOC(C)C)n1cncn1` [I-142, 1-(2-bromo-1,2-diisopropoxyiminoethyl)-1H-1,2,4-triazole], for which the mortality at 500 ppm in assay [1] and in assay [2] was not below 90% in each case. Further, the mortality at 1800 ppm in assay [4] is not below 90%.
Regarding `CON=C(C(=NOC(C)C)C(N)=S)n1cncn1` [II-224, 1-(2-isopropoxyimino-2-thiocarbamoyl-1-methoxyiminoethyl)-1H-1,2,4-triazole], the mortality at 500 ppm in assay [1] and in assay [2] was not below 90% throughout. Further, in assay [4], the mortality at 1800 ppm is not below 90%.
In the case of `COC(=NOC(C)C)C(=NOC(C)C)n1cncn1` [I-165, 1-(1,2-diisopropoxyimino-2-methoxyethyl)-1H-1,2,4-triazole], the mortality at 500 ppm in assay [1] and in assay [2] was not below 90% in each case. Further, in assay [4], the mortality at 1800 ppm was not below 90%.
For `CCCCON=C(C(N)=O)C(=NOCC)n1cncn1` [III-74, 1-(2-n-butoxyimino-2-carbamoyl-1-ethoxyiminoethyl)-1H-1,2,4-triazole], the mortality at 500 ppm in assay [2] is not below 90%.
With `CCCON=C(C#N)C(=NOCCC)n1cncn1` [IV-90, 1-[2-cyano-1,2-bis(n-propoxyimino)ethyl]-1H-1,2,4-triazole], the mortality at 500 ppm in assay [1] and in assay [2] was not below 90% throughout.
As to `CCCON=C(C(N)=O)C(=NOCCC)n1cncn1` [IV-101, 1-[2-carbamoyl-1,2-bis(n-propoxyimino)ethyl]-1H-1,2,4-triazole], the mortality at 500 ppm in assay [2] was not below 90%. For the same compound, the mortality at 1800 ppm in assay [4] was not below 90%.
Regarding `CC(C)ON=C(C(=NOC(C)C)n1cncn1)c1nnn[nH]1` [I-213, 1-[1,2-diisopropoxyimino-2-(1H-tetrazol-5-yl)ethyl]-1H-1,2,4-triazole], the mortality at 500 ppm in assay [2] is not below 90%.
Take `CCCCON=C(C#N)C(=NOCC)n1cncn1` [III-51, 1-(2-n-butoxyimino-2-cyano-1-ethoxyiminoethyl)-1H-1,2,4-triazole]: the mortality at 500 ppm in assay [1] and in assay [2] was not below 90% throughout.
With `CCSC(=O)C(=NOC(C)C)C(=NOC)n1cncn1` [II-222, S-ethyl 2-isopropoxyimino-3-methoxyimino-3-(1H-1,2,4-triazol-1-yl)propanethioate], the mortality at 500 ppm in assay [1] and in assay [2] was not below 90% each time.
`CC(=NOC(C)C)C(=NOC(C)C)n1ccnc1` [I-273, 1-(1,2-diisopropoxyiminopropyl)imidazole]: the mortality at 500 ppm in assay [1] and in assay [2] was not below 90% throughout. The mortality at 1800 ppm in assay [4] was not below 90%.

The mortality is the share of the test organisms that died.
